Assay results published in ChEMBL document CHEMBL1240338, “BIBF 1120: triple angiokinase inhibitor with sustained receptor blockade and good antitumor efficacy” (Cancer Res, 2008).

Experiments:
[1] = biological target: Cyclin-dependent kinase 2 (Homo sapiens, UniProt P24941); assay: Inhibition of human CDK2
HUVEC [2] = assay: Antiangiogenic activity in HUVEC assessed as inhibition of VEGF-induced cell proliferation by [3H]thymidine incorporation assay; type: functional, cell-based; conditions: Homo sapiens
HUVEC [3] = assay: Antiangiogenic activity in HUVEC assessed as inhibition of bFGF-induced cell proliferation by [3H]thymidine incorporation assay; type: functional, cell-based; conditions: Homo sapiens
[4] = Antiangiogenic activity in HSMEC assessed as inhibition of VEGF-induced cell proliferation by [3H]thymidine incorporation assay; type: functional; conditions: Homo sapiens
[5] = Antiangiogenic activity in BRP assessed as inhibition of PDGF BB-induced cell proliferation by [3H]thymidine incorporation assay; type: functional; conditions: Bos taurus
[6] = Antiangiogenic activity in HUASMC assessed as inhibition of PDGF BB-induced cell proliferation by [3H]thymidine incorporation assay; type: functional; conditions: Homo sapiens
FaDu [7] = assay: Antiangiogenic activity in human FADU assessed as inhibition of cell proliferation by [3H]thymidine incorporation assay in presence of fetal calf serum; type: functional, cell-based
Calu-6 = assay: Antiangiogenic activity in human Calu6 assessed as inhibition of cell proliferation by [3H]thymidine incorporation assay in presence of fetal calf serum; type: functional, cell-based
HeLa = assay: Antiangiogenic activity in human HeLa assessed as inhibition of cell proliferation by [3H]thymidine incorporation assay in presence of fetal calf serum; type: functional, cell-based
HUVEC [8] = assay: Antiangiogenic activity in HUVEC assessed as inhibition of VEGF-induced apoptosis by [3H]thymidine incorporation assay; type: functional, cell-based; conditions: Homo sapiens
[9] = Antiangiogenic activity in HSMEC assessed as inhibition of VEGF-induced apoptosis by [3H]thymidine incorporation assay; type: functional, Homo sapiens
HUVEC [10] = assay: Induction of apoptosis in HUVEC at 50 nM by TUNEL assay (reference value: 2%); type: cell-based; conditions: human, 0.05 µM
Mus musculus [11] = assay: Toxicity in human FADU cells xenografted in NMRI nu/nu mouse assessed mortality at 100 mg/kg, po qd for 5 days; type: organism-based; parameters: dose 100 mg/kg, route oral; conditions: in vivo, 120 h
Mus musculus [12] = assay: Toxicity in human FADU cells xenografted in NMRI nu/nu mouse assessed weight loss at 100 mg/kg, po qd for 5 days; type: organism-based; parameters: dose 100 mg/kg, route oral; conditions: in vivo, 120 h
FaDu [13] = assay: Antitumor activity against human FADU cells xenografted in NMRI nu/nu mouse assessed as inhibition of tumor growth at 50 mg/kg, po qd for 2 days relative to control; type: functional
[14] = Plasma concentration in NMRI nu/nu mouse at 50 mg/kg, po after 1 hr; type: ADME, organism-based; parameters: dose 50 mg/kg, route oral
[15] = Trough plasma concentration in NMRI nu/nu mouse at 50 mg/kg, po after 24 hrs; type: ADME, organism-based; parameters: dose 50 mg/kg, route oral
FaDu [16] = assay: Antitumor activity against human FADU cells xenografted in NMRI nu/nu mouse assessed as tumor growth at 50 mg/kg, po qd for 5 days relative to control
FaDu [17] = assay: Antitumor activity against human FADU cells xenografted in NMRI nu/nu mouse assessed as tumor growth at 25 mg/kg, po qd for 5 days relative to control
FaDu [18] = assay: Antitumor activity against human FADU cells xenografted in NMRI nu/nu mouse assessed as tumor growth at 10 mg/kg, po qd for 5 days relative to control
FaDu [19] = assay: Antitumor activity against human FADU cells xenografted in NMRI nu/nu mouse assessed as tumor growth at 100 mg/kg, po qd for 5 days relative to control
CAKI-1 [20] = assay: Antitumor activity against human Caki1 cells xenografted in NMRI nu/nu mouse assessed as tumor growth at 50 mg/kg, po qd for 5 days relative to control
CAKI-1 [21] = assay: Antitumor activity against human Caki1 cells xenografted in NMRI nu/nu mouse assessed as tumor growth at 10 mg/kg, po qd for 5 days relative to control
CAKI-1 [22] = assay: Antitumor activity against human Caki1 cells xenografted in NMRI nu/nu mouse assessed as tumor growth at 100 mg/kg, po qd for 5 days relative to control
[23] = Antitumor activity against rat GS-9L cells implanted in syngeneic F344 Fischer rat assessed as inhibition of tumor growth at 50 mg/kg, po qd for 5 days relative to control
[24] = Antitumor activity against rat GS-9L cells implanted in syngeneic F344 Fischer rat assessed as inhibition of tumor growth at 25 mg/kg, po qd for 5 days relative to control
[25] = Antitumor activity against rat GS-9L cells implanted in syngeneic F344 Fischer rat assessed as inhibition of tumor growth at 10 mg/kg, po qd for 5 days relative to control
FaDu [26] = assay: Antitumor activity against human FADU cells xenografted in NMRI nu/nu mouse assessed as reduction of tumor vessel density at 100 mg/kg, po qd for 5 days by Meca 32 immunohistochemistry image analysis relative to control; parameters: scale not given: the % may be the effect or the level left
FaDu [27] = assay: Antitumor activity against human FADU cells xenografted in NMRI nu/nu mouse assessed as reduction of PDGFR-beta-positive mural cells at 100 mg/kg, po qd for 5 days by PDGFR-beta immunohistochemistry image analysis relative to control; parameters: scale not given: the % may be the effect or the level left

In the case of `COC(=O)c1ccc2c(c1)NC(=O)/C2=C(\Nc1ccc(N(C)C(=O)CN2CCN(C)CC2)cc1)c1ccccc1` [NINTEDANIB], the IC50 [1] is reported as > 10000 nM, the EC50 (HUVEC [2]) is reported as 9 nM and the EC50 (HUVEC [3]) is reported as 290 nM. It also gave an EC50 [4] of 7 nM, an EC50 [5] of 79 nM and an EC50 [6] of 69 nM. For the same molecule, the EC50 (FaDu [7]) was > 4500 nM, the EC50 (Calu-6) was > 3500 nM and the EC50 (HeLa) was > 3500 nM. The EC50 (HUVEC [8]) was < 10 nM, the EC50 [9] was < 10 nM and the Activity (HUVEC [10]) was 28%. For the same molecule, the Activity (Mus musculus [11]) was “Non-toxic”, the Activity (Mus musculus [12]) was “Non-toxic” and the T/C (FaDu [13]) was 15%. The concentration at 1 h [14] was 1000 nM, the concentration at 24 h [15] was < 8 nM and the T/C (FaDu [16]) was 27%. The T/C (FaDu [17]) was 46%, the T/C (FaDu [18]) was 82% and the T/C (FaDu [19]) was 11%. The T/C (CAKI-1 [20]) was 25%, the T/C (CAKI-1 [21]) was 71% and the T/C (CAKI-1 [22]) was 16%. It also gave a T/C [23] of 30%, a T/C [24] of 45% and a T/C [25] of 74%. The Activity (FaDu [26]) was 76% and the Activity (FaDu [27]) was 64%.
